Experimental data as given in the Deep4Chem optical property database.
“And” between values parts separate entries of the source, which are not always exact repeats. Equal values may be shown once. One block for each molecule: values may come before it.

Assay: solvent given as SMILES

Compound: CCCCCCOc1cc2[nH]c(cc2CCOC)c2nc(ccc3[nH]c(cc3CCOC)c3nc1C(CCOC)=C3)C(CCOC)=C2
absorption maximum (in Cc1ccccc1): 684 nm

Compound: CCCCC(CC)Cn1c2cc(C#N)ccc2c2ccc(C#Cc3cc(C#Cc4ccc5c6ccc(C#N)cc6n(CC(CC)CCCC)c5c4)c4ccc5c(C#Cc6ccc7c8ccc(C#N)cc8n(CC(CC)CCCC)c7c6)cc(C#Cc6ccc7c8ccc(C#N)cc8n(CC(CC)CCCC)c7c6)c6ccc3c4c65)cc21 (stereo not drawn)
absorption maximum (in ClCCl): 467 nm

Compound: CCOc1ccc2cc(-c3ccc(C)cc3)c(=O)oc2c1
absorption maximum (in C1CCOC1): 342 nm
absorption maximum (in CCCCCC): 338 nm
absorption maximum (in CCO): 344 nm
absorption maximum (in CS(C)=O): 345 nm

Compound: CN(C)c1ccc(/C=C/c2ccc(-c3nc(C#N)c(C#N)n3C)cc2)cc1
absorption maximum (in C1CCCCC1): 376 nm
absorption maximum (in CC#N): 380 nm
absorption maximum (in CO): 378 nm
absorption maximum (in ClC(Cl)Cl): 383 nm

Compound: Cc1cccc2cc(-c3cc4cccc(C)c4oc3=O)oc12
absorption maximum (in CC#N): 369 nm
absorption maximum (in CCOC(C)=O): 370 nm
absorption maximum (in CS(C)=O): 373 nm
absorption maximum (in Cc1ccccc1): 376 nm
absorption maximum (in O): 367 nm

Compound: CC1(C)c2ccccc2N(c2ccccc2)c2ccc(-c3ccc(-c4ccc5c(c4)C(C)(C)c4ccccc4N5c4ccccc4)c4nsnc34)cc21
absorption maximum (in Cc1ccccc1): 475.42 nm

Compound: CCCCC1(CCCC)c2cc(C#Cc3ccc4ccc5cccc6ccc3c4c56)ccc2-c2ccc(C#Cc3ccc4ccc5cccc6ccc3c4c56)cc21
absorption maximum (in C1CCCCC1): 418 nm
absorption maximum (in C1CCOC1): 421 nm
absorption maximum (in CC#N): 420 nm
absorption maximum (in CCOC(C)=O): 419 nm
absorption maximum (in CN(C)C=O): 427 nm
absorption maximum (in Cc1ccccc1): 424 nm
absorption maximum (in ClC(Cl)Cl): 421 nm
absorption maximum (in ClCCl): 424 nm

Compound: COc1cccc(/C=C/C(=O)c2c(O)cc(C)oc2=O)c1
absorption maximum (in CC#N): 373 nm
absorption maximum (in ClCCl): 377 nm

Compound: CCn1c2sccc2c2c3nsnc3c3c4ccsc4n(CC)c3c21
absorption maximum (in C1CCOC1): 424 nm
absorption maximum (in CCOC(C)=O): 422 nm
absorption maximum (in CN(C)C=O): 430 nm
absorption maximum (in Cc1ccccc1): 423 nm
absorption maximum (in ClCCl): 425 nm

Compound: C(=C\c1ccncn1)/c1ccc(N(c2ccccc2)c2ccc(/C=C/c3ccncn3)cc2)cc1
absorption maximum (in ClCCl): 422 nm

Compound: CCN(CC)c1ccc(C=Cc2nc3nc4ccccc4nc3s2)cc1
absorption maximum (in CO): 490 nm

Compound: Cc1cc(N2c3ccccc3[Si](c3ccccc3)(c3ccccc3)c3ccccc32)c(C)cc1-c1nc(-c2ccccc2)nc(-c2ccccc2)n1
absorption maximum (in Cc1ccccc1): 365.47 nm

Compound: CNc1cc2nc3cc(Cl)c(Cl)cc3nc2cc1NC
absorption maximum (in CCO): 442 nm

Compound: Cc1cc(=O)oc2cc(/[NH+]=C/C=C3/C=C(C(=O)O)NC(C(=O)O)C3)ccc12 (stereo not drawn)
absorption maximum (in O): 520 nm

Compound: COc1ccc(N(c2ccc(OC)cc2)c2cc3ccc4cc(B(c5c(C)cc(C)cc5C)c5c(C)cc(C)cc5C)cc5ccc(c2)c3c45)cc1
absorption maximum (in C1CCOC1): 399 nm
absorption maximum (in CC(C)=O): 395 nm
absorption maximum (in CCCCCC): 398 nm
absorption maximum (in Cc1ccccc1): 402 nm
absorption maximum (in ClC(Cl)Cl): 399 nm
absorption maximum (in ClCCl): 397 nm

Compound: Cc1ccc(N(c2ccc(C)cc2)c2ccc(-c3ccc(-c4ccc(N(c5ccc(C)cc5)c5ccc(C)cc5)cc4)c4nsnc34)cc2)cc1
absorption maximum (in Cc1ccccc1): 474 nm
absorption maximum (in ClCCl): 485 nm

Compound: O=P1(c2ccccc2)C2=C(c3ccccc31)[Si](c1ccccc1)(c1ccccc1)c1cc(N(c3ccccc3)c3ccccc3)ccc12 (stereo not drawn)
absorption maximum (in CC#N): 456 nm
absorption maximum (in CO): 466 nm
absorption maximum (in Cc1ccccc1): 459 nm

Compound: O=C1/C(=C2\Sc3ccc(S(=O)(=O)Cl)cc3C2=O)Sc2ccc(S(=O)(=O)Cl)cc21
absorption maximum (in C1COCCO1): 526 nm
absorption maximum (in CS(C)=O): 553 nm

Compound: O=c1cc(C(F)(F)F)c2cc3c4c(c2o1)CCCN4CCC3
absorption maximum (in C1CCCCC1): 393 nm
absorption maximum (in CC#N): 418 nm
absorption maximum (in CCO): 421 nm
absorption maximum (in CCOC(C)=O): 409 nm
absorption maximum (in OCC(O)CO): 434 nm

Compound: O=P(c1c2ccccc2cc2ccccc12)(c1c2ccccc2cc2ccccc12)c1c2ccccc2cc2ccccc12
absorption maximum (in C1CCOC1): 411 nm

Compound: COC(=O)CCC(NC(=O)CCNc1cccc2ccccc12)C(=O)OC (stereo not drawn)
absorption maximum (in CCO): 330 nm

Compound: Nc1cc(F)c(C(=O)c2cc(F)c(F)cc2F)cc1F
absorption maximum (in CCO): 335 nm

Compound: CN1c2ccc3c(c2-c2ccccc2S1(=O)=O)-c1ccccc1S(=O)(=O)N3C
absorption maximum (in ClCCl): 350 nm

Compound: CCCCCc1ccc(C#Cc2cc(C#Cc3ccc(CCCCC)cc3)c3ccc4c(C(=O)c5ccccc5)cc(C#Cc5ccc(CCCCC)cc5)c5ccc2c3c54)cc1
absorption maximum (in ClCCl): 457 nm

Compound: Clc1nnc(Oc2ccc(N(c3ccc(Br)cc3)c3ccc(Br)cc3)cc2)nn1
absorption maximum (in ClCCl): 524 nm

Compound: N#CC1=CC(C#Cc2ccccc2)=CC(C#N)=P1(c1ccccc1)c1ccccc1
absorption maximum (in ClC(Cl)Cl): 489 nm

Compound: CCCCCCC(CCCCCC)n1c(=O)c2c3ccc4cccc5c6cccc7ccc(c2c1=O)c(c76)c3c45
absorption maximum (in C1CCCCC1): 335 nm
absorption maximum (in CC#N): 336 nm
absorption maximum (in CC(C)=O): 336 nm
absorption maximum (in CCCCCC): 334 nm
absorption maximum (in CCO): 336 nm
absorption maximum (in CCOCC): 335 nm
absorption maximum (in CS(C)=O): 339 nm
absorption maximum (in Cc1ccccc1): 339 nm
absorption maximum (in ClC(Cl)(Cl)Cl): 338 nm
absorption maximum (in ClC(Cl)Cl): 339 nm

Compound: CC[Si](C#Cc1c2c(=O)c3ccccc3c2c(C#C[Si](CC)(CC)CC)c2c(=O)c3ccccc3c12)(CC)CC
absorption maximum (in ClC(Cl)Cl): 522 nm

Compound: c1ccc(-c2nc(-c3ccc(-c4nc(-c5ccccc5)c(-c5ccccc5)[nH]4)s3)[nH]c2-c2ccccc2)cc1
absorption maximum (in C1CCOC1): 386 nm
absorption maximum (in CC#N): 385 nm
absorption maximum (in CC(=O)O): 392 nm
absorption maximum (in CC(C)=O): 384 nm and 385 nm
absorption maximum (in CCOC(C)=O): 385 nm
absorption maximum (in CCOCC): 384 nm
absorption maximum (in CO): 382 nm
absorption maximum (in ClC(Cl)Cl): 395 nm and 394.99 nm

Compound: Cc1csc2[n+]1[B-](F)(F)OC(c1ccc(N(C)C)cc1)=N2
absorption maximum (in C1CCOC1): 405 nm
absorption maximum (in CC#N): 403 nm
absorption maximum (in Cc1ccccc1): 407 nm
absorption maximum (in ClCCl): 406 nm

Compound: c1ccc2c(c1)-c1ccccc1C21c2ccccc2-c2ncccc21
absorption maximum (in CC1CCCO1): 314 nm

Compound: OC1(c2ccc(-c3cccs3)s2)CCCC1
absorption maximum (in C1CCOC1): 344 nm
absorption maximum (in CC#N): 343 nm
absorption maximum (in CCCCCC): 341 nm
absorption maximum (in CCO): 342 nm
absorption maximum (in OCCOCCO): 347 nm
absorption maximum (in c1ccncc1): 348 nm

Compound: COc1ccccc1-c1nc(-c2ccccc2)c(-c2ccccc2)[nH]1
absorption maximum (in CO): 307 nm

Compound: c1ccc(C[n+]2ccc(-c3cc[n+](Cc4ccccc4)cc3)cc2)cc1
absorption maximum (in CC#N): 260 nm

Compound: CCCCc1ccc(-n2c3c4ccc(C(F)(F)F)cc4nnc3c3c2c2nnc4cc(C(F)(F)F)ccc4c2n3-c2ccc(CCCC)cc2)cc1
absorption maximum (in Cc1ccccc1): 322 nm

Continued, values first:

absorption maximum (in ClC(Cl)Cl): 673 nm
Compound: CCOC(=O)/C=C/C1=C(c2ccc(C)cc2)C2=Nc3c(-c4ccc(C)cc4)c(-c4ccc(OC)cc4)c(-c4ccc(C)cc4)n3[B-](F)(F)[N+]2=C1c1ccc(C)cc1

absorption maximum (in CC#N): 606 nm
absorption maximum (in CS(C)=O): 616 nm
absorption maximum (in ClC(Cl)Cl): 619 nm
Compound: C#CCn1c2ccccc2c2cc(/C=C/c3c(Cl)c(C)c4n3[B-](F)(F)[N+]3=C(C)C(Cl)=C(C)C3=C4c3ccc(I)cc3)ccc21

absorption maximum (in ClCCl): 432 nm
Compound: Cc1cc(-c2ccc(N(c3ccccc3)c3ccccc3)cc2)c2nsnc2c1-c1ccc(N(c2ccccc2)c2ccccc2)cc1

absorption maximum (in C1CCCCC1): 608.5 nm
absorption maximum (in CCOC(C)=O): 605 nm
Compound: CC1=[N+]2C(=C(c3cccs3)c3ccc(C)n3[B-]2(F)F)C=C1c1cc2n(c1)[B-](F)(F)[N+]1=CC=CC1=C2c1c(C)cc(C)cc1C

absorption maximum (in ClCCl): 370 nm
Compound: Cc1c(C(=O)c2ccc(C(F)(F)F)cc2)c2ccc3cccc4c5cccc6ccc1c(c65)c2c34

absorption maximum (in ClCCl): 376 nm
Compound: COc1ccc(-c2c3ccccc3c(-c3ccc(OC)cc3)c3ccccc23)cc1

absorption maximum (in ClC(Cl)Cl): 422 nm
Compound: N#Cc1cc2ccc3cc(C#N)c4ccccc4c3c2c2ccccc12

absorption maximum (in CO): 400 nm
Compound: Cc1cc(C)c(B(c2cc(C#Cc3ccccc3)sc2-c2sc(C#Cc3ccccc3)cc2P(=O)(c2ccccc2)c2ccccc2)c2c(C)cc(C)cc2C)c(C)c1

absorption maximum (in ClCCl): 379 nm
Compound: C[Si]1(C)c2cc(-c3ccccc3)ccc2C=Cc2ccc(-c3ccccc3)cc21

absorption maximum (in C1CCCCC1): 332 nm
Compound: CCC(C)(C)c1ccc2c(c1)C(CCOC)(CCOC)c1cc(-c3ccc(-c4ccc5c(c4)C(CCOC)(CCOC)c4cc(C(C)(C)CC)ccc4-5)cc3)ccc1-2

absorption maximum (in C1CCOC1): 409 nm
Compound: O=c1oc2cccc3c4cccc5ccc6c7ccccc7c1c(c23)c6c54

absorption maximum (in C1COCCO1): 403 nm
absorption maximum (in CC#N): 400 nm
absorption maximum (in ClCCl): 408 nm
Compound: Cc1nc2ccc(/C=C/c3ccc(N(C)C)cc3)cc2nc1-c1ccccc1

absorption maximum (in C1CCCCC1): 291 nm
absorption maximum (in CC#N): 289 nm
absorption maximum (in CO): 289 nm
Compound: CCOC(=O)CCOc1ccc(C(c2c(C)[nH]c3ccccc23)c2c(C)[nH]c3ccccc23)cc1OC

absorption maximum (in ClC(Cl)Cl): 423 nm
Compound: CCCN1c2ccccc2Sc2cc(/C=C\c3cc(=O)oc4ccc(C)cc34)ccc21

absorption maximum (in ClCCl): 376 nm
Compound: Cc1cc(-c2ccc(C(C)(C)C)cc2)c2nsnc2c1-c1ccc(C(C)(C)C)cc1

absorption maximum (in ClCCl): 300 nm
Compound: CCCCCCCCCn1c(-c2cc(-c3nc4ccccc4n3CCCCCCCCC)cc(-c3nc4ccccc4n3CCCCCCCCC)c2)nc2ccccc21

absorption maximum (in ClC(Cl)Cl): 409 nm
Compound: CCCCCCN1C(=O)c2cccc3c(-c4ccc(-c5cccs5)s4)ccc(c23)C1=O

absorption maximum (in ClCCl): 654 nm
Compound: CC(C)[Si](C#Cc1c2cc3ccccc3cc2c(C#Cc2ccc(C(F)(F)F)cc2)c2cc3ccccc3cc12)(C(C)C)C(C)C

absorption maximum (in ClCCl): 370 nm
Compound: CCn1c2cc(-c3cccs3)ccc2c2ccc(-c3cccs3)cc21

absorption maximum (in ClCCl): 366 nm
Compound: CCCCn1c(-c2ccc(-c3nnc(-c4ccc(-c5nc6c7ccccc7c7ccccc7c6n5CCCC)cc4)o3)cc2)nc2c3ccccc3c3ccccc3c21

absorption maximum (in CC#N): 514 nm
absorption maximum (in CS(C)=O): 524 nm
Compound: [O-]c1c(-c2nc3ccccc3s2)cc2ccc3cccc4ccc1c2c34
